SMILES strings stand for the structures.

Data on 23 compounds can be found in ChEMBL document CHEMBL1128908, “Synthesis and biological evaluation of 2,3-diarylthiophenes as selective cox-2 inhibitors. part II: Replacing the heterocycle” (Bioorg Med Chem Lett, 1996).

Data set [1] has as its target Prostaglandin G/H synthase 1 (Homo sapiens, UniProt P23219). Nature of the data set: biochemical. In kind it is cell-based, Sf9, Microsomes.
Description: Inhibitory activity against human recombinant Prostaglandin G/H synthase 1 expressed in microsomes taken from baculovirus infected Sf9 cells
In data set [2] the target is T1, Prostaglandin G/H synthase 2 (Homo sapiens, UniProt P35354).
T1 sequence (P35354 whole entry): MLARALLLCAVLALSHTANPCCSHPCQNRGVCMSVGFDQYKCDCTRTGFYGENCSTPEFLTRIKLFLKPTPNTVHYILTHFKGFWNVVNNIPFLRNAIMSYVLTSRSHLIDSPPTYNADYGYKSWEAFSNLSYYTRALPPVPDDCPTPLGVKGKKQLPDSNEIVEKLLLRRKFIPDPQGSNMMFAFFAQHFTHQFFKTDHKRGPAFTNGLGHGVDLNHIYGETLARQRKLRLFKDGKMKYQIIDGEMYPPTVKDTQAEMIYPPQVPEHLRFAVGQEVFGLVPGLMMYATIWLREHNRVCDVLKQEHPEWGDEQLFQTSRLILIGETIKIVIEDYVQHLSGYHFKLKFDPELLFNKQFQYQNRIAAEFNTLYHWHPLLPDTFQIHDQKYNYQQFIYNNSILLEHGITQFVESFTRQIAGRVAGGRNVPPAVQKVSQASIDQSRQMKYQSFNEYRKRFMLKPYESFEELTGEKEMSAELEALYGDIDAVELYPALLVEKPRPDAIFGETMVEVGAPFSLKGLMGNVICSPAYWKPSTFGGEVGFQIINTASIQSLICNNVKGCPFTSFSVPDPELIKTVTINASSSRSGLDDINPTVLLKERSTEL
The experiment in a line: biochemical. The format is cell-based, Sf9, Microsomes.
Description: Inhibitory activity against human recombinant Prostaglandin G/H synthase 2 expressed in microsomes taken from baculovirus infected Sf9 cells

In data set [3] the test system is Rattus norvegicus. Nature of the data set: Compound was evaluated in vivo for potency against rat paw edema model. The format is functional.
The subject of data set [4] is Rattus norvegicus. The experiment in a line: Compound was evaluated in vivo for effect on gastrointestinal integrity(GI) in rats using [51Cr]- assay: causes lesions. The format is functional, organism-based.
Data set [5] deals with Rattus norvegicus. Nature of the data set: Compound was evaluated in vivo for effect on gastrointestinal integrity(GI) in rats using [51Cr]- assay: no lesions observed. In kind it is functional, organism-based.
Data set [6] in a line: Plasma concentration at 2 hr in rats was evaluated. In kind it is ADME, organism-based. Conditions: rat.
Data set [7] has as its system Rattus norvegicus. The experiment in a line: Compound was evaluated in vivo for effect on gastrointestinal integrity (GI) in rats using [51Cr]- assay: causes lesions. In kind it is functional, organism-based.

Sequence of Prostaglandin G/H synthase 1 (P23219 whole entry): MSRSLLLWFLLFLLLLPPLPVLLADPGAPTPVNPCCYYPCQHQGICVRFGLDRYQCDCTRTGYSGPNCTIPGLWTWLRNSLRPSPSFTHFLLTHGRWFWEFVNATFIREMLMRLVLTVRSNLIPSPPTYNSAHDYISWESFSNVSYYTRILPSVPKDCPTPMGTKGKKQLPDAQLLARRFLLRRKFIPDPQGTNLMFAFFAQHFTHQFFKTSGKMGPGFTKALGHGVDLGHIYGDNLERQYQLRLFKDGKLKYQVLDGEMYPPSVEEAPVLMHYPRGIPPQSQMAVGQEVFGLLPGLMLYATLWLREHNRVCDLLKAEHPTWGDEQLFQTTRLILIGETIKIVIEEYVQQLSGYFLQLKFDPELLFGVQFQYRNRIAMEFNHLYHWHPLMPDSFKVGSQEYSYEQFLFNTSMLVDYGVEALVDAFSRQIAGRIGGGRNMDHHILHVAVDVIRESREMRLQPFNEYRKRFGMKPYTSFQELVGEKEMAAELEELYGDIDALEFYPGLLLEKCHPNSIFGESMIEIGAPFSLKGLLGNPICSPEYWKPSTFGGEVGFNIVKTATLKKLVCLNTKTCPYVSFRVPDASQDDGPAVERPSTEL

For the compound `CS(=O)(=O)c1ccc(-c2cscc2-c2ccc(F)cc2)cc1`, the IC50 in data set [1] is greater than 100 µM; in data set [2], 0.47 µM.
For `CC(C)(O)c1scc(-c2ccc(S(C)(=O)=O)cc2)c1-c1ccc(F)cc1`, in that order: greater than 50 µM and 5.9 µM.
Take `CS(=O)(=O)c1ccc(-c2oc(=O)oc2-c2ccccc2)cc1`: the IC50 in data set [1] is greater than 50 µM; in data set [2], greater than 30 µM.
For `CS(=O)(=O)c1ccc(-c2ncoc2-c2ccc(F)cc2)cc1`, the IC50 in data set [1] is greater than 100 µM; in data set [2], greater than 30 µM.
In data set [3], `COc1ccc2c(c1)c(CC(=O)O)c(C)n2C(=O)c1ccc(Cl)cc1` [INDOMETHACIN] came in with an ED50 of 2 mg/kg. The “growth inhibition (GI)” value in data set [4] was “Causes lesions”.
Turning to `CS(=O)(=O)c1ccc(-c2snnc2-c2ccc(F)cc2)cc1`, the IC50 was greater than 100 µM in data set [1] and 6.5 µM in data set [2]. Besides, the “growth inhibition (GI)” value in data set [5] was “no lesions observed”. In data set [6], this compound registered a concentration at 2 h of 12800 ng/mL. In data set [3], the ED50 was determined as 0.7 mg/kg.
Consider `CS(=O)(=O)c1ccc(-c2[nH]nnc2-c2ccccc2)cc1`, for which the results for the IC50 in data set [1] and in data set [2] were greater than 50 µM and greater than 30 µM, respectively.
As to `Cc1nc(-c2ccc(F)cc2)c(-c2ccc(S(C)(=O)=O)cc2)s1`, the IC50 in data set [1] is greater than 100 µM; in data set [2] it was 0.31 µM.
For `CS(=O)(=O)c1ccc(-c2cnsc2-c2ccc(F)cc2)cc1`, the IC50 was greater than 100 µM in data set [1] and 2.1 µM in data set [2]. For the same compound, the concentration at 2 h in data set [6] was 2200 ng/mL. In data set [3], this compound registered an ED50 of 10 mg/kg.
`CS(=O)(=O)c1ccc(-c2nnnn2-c2ccc(F)c(F)c2)cc1`: the IC50 was greater than 50 µM in data set [1] and greater than 30 µM in data set [2].
Turning to `CS(=O)(=O)c1ccc(-c2cc(Br)sc2-c2ccc(F)cc2)cc1` [DUP-697], in data set [7], the “growth inhibition (GI)” value is on record as “causes lesions”. The compound also showed a concentration at 2 h in data set [6] of 700 ng/mL. In addition, in data set [3], the 50% effect level (ED50) was put at a dose of 1.3 mg/kg.
Regarding `Cc1nc(-c2ccc(S(C)(=O)=O)cc2)c(-c2ccc(F)cc2)s1`, the IC50 in data set [1] is greater than 100 µM; in data set [2], 0.31 µM.
Turning to `CS(=O)(=O)c1ccc(-n2nnnc2-c2ccc(F)c(F)c2)cc1`, the figures for the IC50 in data set [1] and in data set [2] were greater than 100 µM and greater than 30 µM, respectively.
For the compound `CS(=O)(=O)c1ccc(-c2csc(Br)c2-c2ccc(F)cc2)cc1`, in data set [1], the IC50 worked out at 1.2 µM.
Regarding `CS(=O)(=O)c1ccc(-c2c(-c3ccc(F)cc3)csc2CC(=O)O)cc1`, the values for the IC50 in data set [1] and in data set [2] were greater than 50 µM and greater than 10 µM, respectively.
For `CS(=O)(=O)c1ccc(C2=C(c3ccc(F)cc3)C3CCC2C3)cc1` (stereo unspecified), in that order: greater than 50 µM and 30 µM.
On to `CS(=O)(=O)c1ccc(-c2[nH]cnc2-c2ccc(F)cc2)cc1`, for which the IC50 in data set [1] was greater than 100 µM; in data set [2], greater than 30 µM.
For `CS(=O)(=O)c1ccc(-c2cc(C(F)(F)F)nn2-c2ccc(F)cc2)cc1`, the values for the IC50 in data set [1] and in data set [2] were greater than 1.1 µM and 1.2 µM, respectively.
In the same order, the values of `CS(=O)(=O)c1ccc(-c2sncc2-c2ccc(F)cc2)cc1` are greater than 100 µM and 5.1 µM.
In the same order, the values of `CS(=O)(=O)c1ccc(-c2csc(CC(=O)O)c2-c2ccc(F)cc2)cc1` are greater than 50 µM and greater than 10 µM.
For `CC(C)(O)c1scc(-c2ccc(F)cc2)c1-c1ccc(S(C)(=O)=O)cc1`, in that order: greater than 50 µM and greater than 30 µM.
Regarding `CS(=O)(=O)c1ccc(-c2c(-c3ccc(F)cc3)csc2Br)cc1`, the IC50 in data set [1] was greater than 50 µM; in data set [2], greater than 30 µM.
As to `CS(=O)(=O)c1ccc(-c2ocnc2-c2ccc(F)cc2)cc1`, the IC50 is greater than 100 µM in data set [1] and greater than 30 µM in data set [2].
